Measured values: ChEMBL document CHEMBL1201862, “PubChem BioAssay data set” (2004)
Activity calls are given as the source filed them.

Columns and labels:
[1] = target: Beta-2 adrenergic receptor (Homo sapiens, UniProt P07550); test: beta2AR agonists driving receptor internalization, dose response, cell-based, FAP fluorogen, flow cytometry, cherry pick 1 (AID 588763); type: functional
Beta-galactosidase = Beta-galactosidase (Escherichia coli, UniProt Q8VNN2); test: PubChem AID 485352; type: functional
Genome polyprotein = Genome polyprotein (dengue virus type 2, UniProt P29990); test: Dengue-2 NS5 methyltransferase inhibitors, primary screen, biochemical, confirmation dose response (AID 588689); type: functional
[2] = target: Type-1 angiotensin II receptor (Homo sapiens, UniProt P30556); test: AT1 receptor antagonists, dose response, selectivity assay for APJ receptor antagonist project, cell-based, uHTS hits (AID 463214); type: functional;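 also: antagonist potency against angiotensin II stimulated AT1 response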
[3] = target: T1, Sentrin-specific protease 6 (Homo sapiens, UniProt Q9GZR1); type: functional;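 also: Luminescence-based dose-response confirmatory assay of SENP6 inhibition, following up an ultra-high-throughput screen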
T1 sequence (Q9GZR1 whole entry): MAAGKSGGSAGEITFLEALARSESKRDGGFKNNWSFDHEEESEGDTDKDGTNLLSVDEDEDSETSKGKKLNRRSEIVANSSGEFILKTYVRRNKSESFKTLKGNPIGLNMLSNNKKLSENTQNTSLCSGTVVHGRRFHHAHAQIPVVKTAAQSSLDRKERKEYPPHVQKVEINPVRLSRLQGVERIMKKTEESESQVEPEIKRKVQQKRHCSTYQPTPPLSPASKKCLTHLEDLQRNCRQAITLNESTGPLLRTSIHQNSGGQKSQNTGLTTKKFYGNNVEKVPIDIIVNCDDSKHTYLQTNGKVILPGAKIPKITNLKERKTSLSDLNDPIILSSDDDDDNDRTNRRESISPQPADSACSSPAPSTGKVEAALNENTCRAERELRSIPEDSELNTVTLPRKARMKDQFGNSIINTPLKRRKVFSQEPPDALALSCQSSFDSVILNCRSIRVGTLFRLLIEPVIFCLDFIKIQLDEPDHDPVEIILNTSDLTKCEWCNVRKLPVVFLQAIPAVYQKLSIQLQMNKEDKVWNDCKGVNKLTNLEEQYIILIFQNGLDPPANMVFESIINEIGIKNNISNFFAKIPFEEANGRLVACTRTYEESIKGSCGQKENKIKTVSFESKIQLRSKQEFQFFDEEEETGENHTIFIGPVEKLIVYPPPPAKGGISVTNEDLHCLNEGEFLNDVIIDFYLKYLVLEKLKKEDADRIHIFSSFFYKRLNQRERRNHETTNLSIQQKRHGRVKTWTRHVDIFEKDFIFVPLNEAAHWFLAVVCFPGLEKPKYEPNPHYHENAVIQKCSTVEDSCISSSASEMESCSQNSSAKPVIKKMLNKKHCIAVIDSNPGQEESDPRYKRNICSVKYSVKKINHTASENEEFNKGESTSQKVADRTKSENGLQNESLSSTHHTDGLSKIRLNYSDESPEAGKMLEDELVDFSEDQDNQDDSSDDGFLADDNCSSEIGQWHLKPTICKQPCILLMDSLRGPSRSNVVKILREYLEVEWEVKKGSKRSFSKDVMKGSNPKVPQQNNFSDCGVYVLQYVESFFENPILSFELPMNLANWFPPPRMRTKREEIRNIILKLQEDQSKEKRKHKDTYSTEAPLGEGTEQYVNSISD

Caspase-3 = target: T2, Caspase-3 (Homo sapiens, UniProt P42574); type: functional;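 also: Dose-response selectivity test against caspase-3 for candidate inhibitors of sentrin-specific proteases (SENPs)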
T2 sequence (P42574 whole entry): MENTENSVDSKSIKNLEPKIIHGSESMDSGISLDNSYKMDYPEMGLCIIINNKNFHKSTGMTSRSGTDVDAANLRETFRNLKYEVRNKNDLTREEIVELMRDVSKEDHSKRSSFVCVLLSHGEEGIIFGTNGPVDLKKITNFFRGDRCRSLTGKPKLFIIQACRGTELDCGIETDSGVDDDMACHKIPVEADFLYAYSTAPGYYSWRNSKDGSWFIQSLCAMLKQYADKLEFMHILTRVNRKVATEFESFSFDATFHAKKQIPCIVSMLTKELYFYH

HeLa = test: HeLa cell cytotoxicity, dose response, cytotoxicity control for MITF activator project, CellTiter-Glo luminescence, cherry-pick samples (AID 540259); type: functional, cell-based; details: Homo sapiens
[4] = target: T3, Sentrin-specific protease 8 (Homo sapiens, UniProt Q96LD8); type: functional;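 also: luminescence read-out of SENP8 inhibition, dose-response confirmation following an ultra-high-throughput screen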
T3 sequence (Q96LD8 whole entry): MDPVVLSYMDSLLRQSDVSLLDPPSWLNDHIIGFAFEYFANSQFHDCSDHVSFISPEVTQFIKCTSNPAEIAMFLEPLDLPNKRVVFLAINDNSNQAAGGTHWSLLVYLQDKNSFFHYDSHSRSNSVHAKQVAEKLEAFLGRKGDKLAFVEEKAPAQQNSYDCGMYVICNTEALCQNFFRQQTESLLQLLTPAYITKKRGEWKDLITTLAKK

[5] = HEp-2 cell cytotoxicity, dose response, cytotoxicity control for RSV inhibitor project, HTS (AID 2410); type: functional; details: human respiratory syncytial virus
[6] = target: T4, Sentrin-specific protease 7 (Homo sapiens, UniProt Q9BQF6); type: functional;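 also: Luminescence-based dose-response confirmation of ultra-high-throughput screening hits, measuring inhibition of SENP7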
T4 sequence (Q9BQF6 whole entry): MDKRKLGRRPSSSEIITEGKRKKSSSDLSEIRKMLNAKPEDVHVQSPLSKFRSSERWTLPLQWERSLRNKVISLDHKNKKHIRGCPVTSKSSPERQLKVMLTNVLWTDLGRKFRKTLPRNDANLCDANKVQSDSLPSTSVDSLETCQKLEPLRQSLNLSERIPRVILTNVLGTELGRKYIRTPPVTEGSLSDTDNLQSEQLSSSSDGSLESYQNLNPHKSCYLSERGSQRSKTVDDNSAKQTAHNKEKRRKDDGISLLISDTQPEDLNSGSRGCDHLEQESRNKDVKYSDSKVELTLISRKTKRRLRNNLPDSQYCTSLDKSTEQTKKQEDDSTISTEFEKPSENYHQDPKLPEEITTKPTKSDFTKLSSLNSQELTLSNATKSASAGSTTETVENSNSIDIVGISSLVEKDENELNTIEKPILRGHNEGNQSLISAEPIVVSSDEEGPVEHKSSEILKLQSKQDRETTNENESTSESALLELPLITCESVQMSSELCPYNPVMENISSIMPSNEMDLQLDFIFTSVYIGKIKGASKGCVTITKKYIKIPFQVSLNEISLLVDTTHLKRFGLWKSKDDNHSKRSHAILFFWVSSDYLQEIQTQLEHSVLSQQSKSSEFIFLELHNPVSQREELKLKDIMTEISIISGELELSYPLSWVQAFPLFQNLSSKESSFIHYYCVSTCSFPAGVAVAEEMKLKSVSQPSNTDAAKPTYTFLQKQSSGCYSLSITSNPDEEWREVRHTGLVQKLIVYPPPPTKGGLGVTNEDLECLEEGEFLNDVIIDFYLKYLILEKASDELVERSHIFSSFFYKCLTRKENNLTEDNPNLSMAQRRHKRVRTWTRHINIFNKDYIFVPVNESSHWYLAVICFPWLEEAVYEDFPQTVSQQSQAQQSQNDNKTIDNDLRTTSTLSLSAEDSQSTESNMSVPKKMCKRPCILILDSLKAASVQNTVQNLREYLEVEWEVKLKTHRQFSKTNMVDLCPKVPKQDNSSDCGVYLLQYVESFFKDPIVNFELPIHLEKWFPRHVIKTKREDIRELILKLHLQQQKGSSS

Cysteine protease ATG4B = Cysteine protease ATG4B (Homo sapiens, UniProt Q9Y4P1); type: functional;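 also: Fluorescence-based dose-response confirmation assay measuring inhibition of ATG4B activity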
Phospholipase A2 = Phospholipase A2 (Homo sapiens, UniProt P04054); type: functional;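 also: confirmatory dose-response counterscreen on phospholipase A2, testing hits that came from an ultra-high-throughput screen for ATG4B inhibitors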
HEK293 = test: cells; type: functional, cell-based; details: Homo sapiens
[7] = target: T5, Nuclear receptor subfamily 0 group B member 1 (Homo sapiens, UniProt P51843); test: Luminescence-based cell-based high throughput dose response assay for inhibitors of the orphan nuclear receptor subfamily 0, group B, member 1 (DAX1; NR0B1). [Related pubchem assays (depositor defined):AID504766, AID504790]; type: functional
T5 sequence (P51843 whole entry): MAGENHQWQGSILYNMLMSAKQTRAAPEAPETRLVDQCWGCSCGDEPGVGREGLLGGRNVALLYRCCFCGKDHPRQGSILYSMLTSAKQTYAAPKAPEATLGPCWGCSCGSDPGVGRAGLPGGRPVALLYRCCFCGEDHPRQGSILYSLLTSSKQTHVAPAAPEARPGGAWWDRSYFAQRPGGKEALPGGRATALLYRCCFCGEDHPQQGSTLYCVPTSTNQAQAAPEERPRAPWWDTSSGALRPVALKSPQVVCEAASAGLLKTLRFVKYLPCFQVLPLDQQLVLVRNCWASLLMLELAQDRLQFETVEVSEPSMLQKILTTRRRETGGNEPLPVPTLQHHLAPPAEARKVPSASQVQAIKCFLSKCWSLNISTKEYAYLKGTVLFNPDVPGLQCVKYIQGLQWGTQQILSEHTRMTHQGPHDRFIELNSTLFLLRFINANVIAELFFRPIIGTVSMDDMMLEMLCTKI

[8] = target: T6, Heat shock factor protein 1 (Mus musculus, UniProt P38532); test: inhibition of MG132-induced HSE-luciferase signal, confirmation, cell-based, NIH3T3, luminescence, dose retest (AID 2382); type: functional;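 also: NIH3T3 fibroblasts with HSF1-driven luciferase reporter stressed by proteasome inhibitor MG132; luminescence from HSF1-driven luciferase expression after 8 hours of MG132 stress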
T6 sequence (P38532 whole entry): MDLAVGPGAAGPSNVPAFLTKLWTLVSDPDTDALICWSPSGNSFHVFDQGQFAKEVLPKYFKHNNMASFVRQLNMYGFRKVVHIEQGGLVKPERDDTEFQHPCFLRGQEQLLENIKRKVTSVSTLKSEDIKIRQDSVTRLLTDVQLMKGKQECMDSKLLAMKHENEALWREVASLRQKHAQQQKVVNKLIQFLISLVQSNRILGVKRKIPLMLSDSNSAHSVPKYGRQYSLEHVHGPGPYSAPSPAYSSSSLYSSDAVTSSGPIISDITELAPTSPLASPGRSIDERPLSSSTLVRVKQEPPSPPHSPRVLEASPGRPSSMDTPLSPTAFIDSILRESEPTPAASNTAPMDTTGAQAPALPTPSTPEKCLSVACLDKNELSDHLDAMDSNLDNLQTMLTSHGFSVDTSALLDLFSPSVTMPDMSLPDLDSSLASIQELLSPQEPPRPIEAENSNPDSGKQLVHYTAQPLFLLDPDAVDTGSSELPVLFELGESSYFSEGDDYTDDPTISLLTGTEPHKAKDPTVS

cells [9] = type: functional, cell-based
cells [10] = type: functional, cell-based; remark: listed apart in the source
[11] = Luminescence Cell-Based Dose Confirmation HTS to Identify Activators of 5'UTR Stem-Loop Driven Alpha-Synuclein mRNA Translation in H4 Neuroglioblastoma Cells. [Related pubchem assays: 1829 (Project Summary), 1814 (Primary HTS)]; type: functional
[12] = Luminescence Cell-Based Dose Response HTS to Identify Activators of Luciferase Translation or Activity in H4 […] Cells. [Related pubchem assays: 1829 (Project Summary), 1814 (Primary HTS)]; type: functional
H4 = test: Luminescence Cell-Based Dose Response HTS to Identify Activators of 5'UTR Stem-Loop Driven Prion Protein mRNA Translation in H4 Neuroglioblastoma Cells. [Related pubchem assays: 1829 (Project Summary), 1814 (Primary HTS)]; type: functional; details: Homo sapiens
[13] = target: T7, Oxysterols receptor LXR-beta (Homo sapiens, UniProt P55055); type: functional, cell-based;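 also: agonist activity at LXR measured by a cell-based luminescence readout across a dose range, run as a counterscreen for daf-12 agonists; HEK293 cells with Gal4-LXR fusion and GAL4-driven luciferase reporter; potency for activation of Gal4-LXR reporter so compounds are agonists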
T7 sequence (P55055 whole entry): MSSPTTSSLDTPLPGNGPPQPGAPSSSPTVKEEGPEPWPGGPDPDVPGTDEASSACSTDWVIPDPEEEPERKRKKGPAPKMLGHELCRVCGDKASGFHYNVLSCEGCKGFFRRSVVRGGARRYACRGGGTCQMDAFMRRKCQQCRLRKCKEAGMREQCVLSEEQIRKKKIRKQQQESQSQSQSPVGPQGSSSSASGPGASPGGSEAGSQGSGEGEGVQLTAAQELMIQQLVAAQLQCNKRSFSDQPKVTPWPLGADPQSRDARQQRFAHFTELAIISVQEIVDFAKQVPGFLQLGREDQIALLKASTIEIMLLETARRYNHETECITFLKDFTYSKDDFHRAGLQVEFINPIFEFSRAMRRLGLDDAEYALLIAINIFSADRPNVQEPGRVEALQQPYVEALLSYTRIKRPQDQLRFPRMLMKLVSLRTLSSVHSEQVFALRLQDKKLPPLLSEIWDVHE

Sequence of Beta-galactosidase (Q8VNN2 whole entry): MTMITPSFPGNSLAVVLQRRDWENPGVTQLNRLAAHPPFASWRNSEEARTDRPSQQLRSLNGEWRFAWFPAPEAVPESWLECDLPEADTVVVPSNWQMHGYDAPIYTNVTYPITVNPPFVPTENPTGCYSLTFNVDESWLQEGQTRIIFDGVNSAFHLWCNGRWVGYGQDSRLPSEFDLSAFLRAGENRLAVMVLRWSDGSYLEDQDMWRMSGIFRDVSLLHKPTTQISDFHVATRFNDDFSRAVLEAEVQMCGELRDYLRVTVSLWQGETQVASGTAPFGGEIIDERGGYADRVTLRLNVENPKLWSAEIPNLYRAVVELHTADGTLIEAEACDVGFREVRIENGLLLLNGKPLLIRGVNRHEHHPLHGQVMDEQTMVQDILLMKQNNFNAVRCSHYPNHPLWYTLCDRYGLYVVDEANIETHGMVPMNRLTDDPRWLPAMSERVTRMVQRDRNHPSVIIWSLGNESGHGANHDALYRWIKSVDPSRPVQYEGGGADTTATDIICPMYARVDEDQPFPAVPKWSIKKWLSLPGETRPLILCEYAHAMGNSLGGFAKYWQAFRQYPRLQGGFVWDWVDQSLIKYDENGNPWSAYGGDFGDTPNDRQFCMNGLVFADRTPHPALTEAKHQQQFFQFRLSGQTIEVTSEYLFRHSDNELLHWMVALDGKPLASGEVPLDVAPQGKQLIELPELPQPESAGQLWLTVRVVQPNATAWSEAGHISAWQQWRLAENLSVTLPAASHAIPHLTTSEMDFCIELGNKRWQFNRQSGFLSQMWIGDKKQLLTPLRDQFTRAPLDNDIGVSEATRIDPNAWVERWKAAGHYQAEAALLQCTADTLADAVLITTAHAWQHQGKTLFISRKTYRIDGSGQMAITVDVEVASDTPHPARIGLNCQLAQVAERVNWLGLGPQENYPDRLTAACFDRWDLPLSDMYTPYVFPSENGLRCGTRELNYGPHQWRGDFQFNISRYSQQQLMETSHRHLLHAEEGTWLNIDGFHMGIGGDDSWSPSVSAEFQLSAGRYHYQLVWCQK
Sequence of Type-1 angiotensin II receptor (P30556 whole entry): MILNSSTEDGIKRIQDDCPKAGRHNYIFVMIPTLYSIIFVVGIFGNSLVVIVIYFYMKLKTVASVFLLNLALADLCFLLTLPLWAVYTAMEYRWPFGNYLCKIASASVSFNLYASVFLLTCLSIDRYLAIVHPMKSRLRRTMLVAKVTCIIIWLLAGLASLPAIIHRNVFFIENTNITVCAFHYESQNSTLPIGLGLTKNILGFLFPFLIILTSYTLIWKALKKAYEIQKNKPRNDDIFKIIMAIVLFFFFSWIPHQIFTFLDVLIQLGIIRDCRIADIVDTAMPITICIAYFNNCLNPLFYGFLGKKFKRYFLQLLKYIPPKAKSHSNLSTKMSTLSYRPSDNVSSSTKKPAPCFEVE
Sequence of Beta-2 adrenergic receptor (P07550 whole entry): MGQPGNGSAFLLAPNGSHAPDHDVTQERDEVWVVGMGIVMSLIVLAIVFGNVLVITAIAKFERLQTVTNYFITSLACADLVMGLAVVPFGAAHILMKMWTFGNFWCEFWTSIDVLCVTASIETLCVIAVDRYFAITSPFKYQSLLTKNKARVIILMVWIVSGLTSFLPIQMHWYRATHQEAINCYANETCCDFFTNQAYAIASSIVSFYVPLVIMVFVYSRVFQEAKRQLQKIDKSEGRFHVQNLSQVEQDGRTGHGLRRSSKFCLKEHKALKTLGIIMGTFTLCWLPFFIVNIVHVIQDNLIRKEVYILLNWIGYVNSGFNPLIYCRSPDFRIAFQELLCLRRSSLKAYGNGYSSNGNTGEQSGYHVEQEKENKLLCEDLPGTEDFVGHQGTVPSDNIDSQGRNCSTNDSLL
Sequence of Cysteine protease ATG4B (Q9Y4P1 whole entry): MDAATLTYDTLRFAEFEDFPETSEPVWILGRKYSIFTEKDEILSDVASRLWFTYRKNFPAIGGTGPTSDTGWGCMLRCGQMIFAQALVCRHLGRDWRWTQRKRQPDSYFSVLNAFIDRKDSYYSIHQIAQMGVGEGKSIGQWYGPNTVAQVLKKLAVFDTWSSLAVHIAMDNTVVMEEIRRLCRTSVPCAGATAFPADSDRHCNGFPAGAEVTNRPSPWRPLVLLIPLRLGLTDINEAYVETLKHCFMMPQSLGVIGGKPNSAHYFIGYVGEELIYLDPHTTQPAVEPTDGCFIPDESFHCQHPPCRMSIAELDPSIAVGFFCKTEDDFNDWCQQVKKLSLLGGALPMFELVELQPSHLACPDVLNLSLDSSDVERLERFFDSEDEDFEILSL
Sequence of Phospholipase A2 (P04054 whole entry): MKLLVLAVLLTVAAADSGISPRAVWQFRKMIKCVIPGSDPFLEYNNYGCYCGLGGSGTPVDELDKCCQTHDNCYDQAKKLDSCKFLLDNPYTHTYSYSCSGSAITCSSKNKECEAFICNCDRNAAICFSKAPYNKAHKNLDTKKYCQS
Sequence of Genome polyprotein (P29990 2492-3391 limits assumed): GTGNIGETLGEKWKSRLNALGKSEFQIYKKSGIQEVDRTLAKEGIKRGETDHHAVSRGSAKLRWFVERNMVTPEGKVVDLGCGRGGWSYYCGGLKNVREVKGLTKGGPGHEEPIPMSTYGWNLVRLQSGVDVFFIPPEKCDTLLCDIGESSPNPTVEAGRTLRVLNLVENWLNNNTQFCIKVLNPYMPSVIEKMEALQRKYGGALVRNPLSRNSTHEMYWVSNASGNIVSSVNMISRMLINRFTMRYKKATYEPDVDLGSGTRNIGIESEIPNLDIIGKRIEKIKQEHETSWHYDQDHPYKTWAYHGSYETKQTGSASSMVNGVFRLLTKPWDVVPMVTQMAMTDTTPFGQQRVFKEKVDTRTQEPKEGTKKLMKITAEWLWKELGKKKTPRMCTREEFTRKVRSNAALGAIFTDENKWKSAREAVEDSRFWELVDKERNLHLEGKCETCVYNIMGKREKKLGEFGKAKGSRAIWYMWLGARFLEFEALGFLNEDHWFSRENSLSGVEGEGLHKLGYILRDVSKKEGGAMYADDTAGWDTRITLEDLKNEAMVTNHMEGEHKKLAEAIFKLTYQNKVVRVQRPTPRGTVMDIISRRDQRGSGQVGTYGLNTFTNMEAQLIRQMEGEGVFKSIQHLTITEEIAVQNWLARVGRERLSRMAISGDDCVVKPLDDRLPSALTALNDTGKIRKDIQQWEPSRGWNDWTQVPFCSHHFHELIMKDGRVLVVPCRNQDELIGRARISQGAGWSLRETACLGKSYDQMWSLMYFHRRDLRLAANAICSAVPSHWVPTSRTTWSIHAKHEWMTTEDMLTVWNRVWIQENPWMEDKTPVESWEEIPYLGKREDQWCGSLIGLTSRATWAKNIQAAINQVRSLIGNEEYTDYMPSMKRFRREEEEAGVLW

Compound: CN(CC(=O)N1CCN(c2ncccn2)CC1)S(=O)(=O)c1ccc(Cl)cc1
- EC50 [1]: 0.117 µM (active)

Compound: O=C1Nc2ccc(F)cc2C12Nc1ccccc1-c1nnc(SCc3ccccc3Cl)nc1O2 (stereo unspecified)
- EC50 (Beta-galactosidase): > 40 µM (inactive)
- IC50 (Genome polyprotein): > 100 µM (active)
- IC50 [2]: 25.5 µM (not active)

Compound: COc1cccc(NC(=O)c2csc3c2CCCC3)c1
- IC50 [3]: 15.5 µM (active)
- IC50 (Caspase-3): 19.2 µM (active)
- AC50 (HeLa): 49.7 µM (active)
- IC50 [4]: 18.9 µM (active)
- CC50 [5]: 32.5 µM (active)
- IC50 [6]: 5.17 µM (active)

Compound: CCOC(=O)C1CCCN(C(=O)c2ccc3c(=O)n(Cc4ccccc4OC)c(=S)[nH]c3c2)C1 (stereo unspecified)
- IC50 (Cysteine protease ATG4B): 19.6 µM (active)
- IC50 (Phospholipase A2): 9.33 µM (active)

Compound: Cc1ccc2[nH]c(/C(C#N)=C/c3ccccc3C(=O)O)nc2c1
- IC50 (HEK293): > 67.5 µM (inactive)
- IC50 [7]: > 67.5 µM (inactive)

Compound: CC(=O)Nc1ccc(-c2cn3c(n2)SCC3)cc1
- EC50 [8]: > 195 µM (not active)
- EC50 [1]: 10.9 µM (inactive)

Compound: Cc1cc(C(=O)OCC(=O)c2cccc([N+](=O)[O-])c2)c2ccccc2n1
- EC50 (Beta-galactosidase): > 40 µM (inactive)
- IC50 [2]: 17.4 µM (active)

Compound: O=C(Nc1ncccc1O)c1ccc(C(=O)c2ccccc2)cc1
- EC50 (cells [9]): 48.2 µM (active)
- EC50 (cells [10]): 72.7 µM (active)
- EC50 [11]: 11.4 µM (active)
- EC50 [12]: 16.4 µM (active)
- IC50 (HEK293): 1.04 µM (active)
- EC50 (H4): 23 µM (active)
- EC50 [13]: > 67.5 µM (inactive)
- IC50 [7]: > 67.6 µM (inactive)
